# Data reported in PMC9458148 (Molecules, 2022).
# Like-named read-outs stand apart in the source and are kept apart here.
# Tests used:
# Tyrosinase [1] = target: T1, Tyrosinase (Agaricus bisporus, UniProt C7FF04); test: Enzyme kinetics on tyrosinase (Lineweaver–Burk and Dixon plots); assay type: biochemical; conditions: various substrate concentrations
# Protocol: The v0 was calculated at ~10% of the substrate conversion rate by tyrosinase. The results are shown as Lineweaver–Burk plots (Figure 2A–C and Table 1).
# (§1) To assess the inhibitory effect of compounds on tyrosinase, 130 μL tyrosinase in 0.05 mM phosphate buffer (pH 6.8) was aliquoted into 96-well plates, and 20 μL of each compound at concentrations ranging from 0.5 to 0.0075 mM was added. Next, 50 μL 1.2 mM L-tyrosine in phosphate buffer was diluted to calculate the inhibitory activity. Finally, 50 μL 10–0.62 mM l-tyrosine in buffer was added to analyze the initial velocity (v0). Twenty minutes after starting the reaction, the amount of product was detected at 475 nm. The inhibitory activity was calculated using the following equation: Inhibitory activity rate (%) = [(ΔC − ΔS)/ΔC] × 100, where C and S are the intensity of control and inhibitor after 20 min, respectively.
# Target sequence in this assay (C7FF04 2-392): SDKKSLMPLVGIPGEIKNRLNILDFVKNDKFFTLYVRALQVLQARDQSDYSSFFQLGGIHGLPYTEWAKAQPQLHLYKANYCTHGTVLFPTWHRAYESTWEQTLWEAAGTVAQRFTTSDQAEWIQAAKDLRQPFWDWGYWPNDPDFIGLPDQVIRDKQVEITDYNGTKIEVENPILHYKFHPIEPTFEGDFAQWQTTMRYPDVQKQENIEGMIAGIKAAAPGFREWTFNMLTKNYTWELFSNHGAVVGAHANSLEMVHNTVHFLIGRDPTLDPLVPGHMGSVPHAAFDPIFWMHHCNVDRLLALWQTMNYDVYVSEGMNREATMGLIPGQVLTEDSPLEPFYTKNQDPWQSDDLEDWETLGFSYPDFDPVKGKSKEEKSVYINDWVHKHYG
# Tyrosinase [2] = target: T1, Tyrosinase; test: Tyrosinase assay (inhibitory activity, L-tyrosine substrate, product detected at 475 nm); assay type: biochemical; set-up: purchased Sigma–Aldrich T3824; conditions: for Inhibitory Ratio at 50 μM: 50 μM compound
# Protocol: as §1
# Target sequence in this assay (C7FF04 1-392 limits assumed): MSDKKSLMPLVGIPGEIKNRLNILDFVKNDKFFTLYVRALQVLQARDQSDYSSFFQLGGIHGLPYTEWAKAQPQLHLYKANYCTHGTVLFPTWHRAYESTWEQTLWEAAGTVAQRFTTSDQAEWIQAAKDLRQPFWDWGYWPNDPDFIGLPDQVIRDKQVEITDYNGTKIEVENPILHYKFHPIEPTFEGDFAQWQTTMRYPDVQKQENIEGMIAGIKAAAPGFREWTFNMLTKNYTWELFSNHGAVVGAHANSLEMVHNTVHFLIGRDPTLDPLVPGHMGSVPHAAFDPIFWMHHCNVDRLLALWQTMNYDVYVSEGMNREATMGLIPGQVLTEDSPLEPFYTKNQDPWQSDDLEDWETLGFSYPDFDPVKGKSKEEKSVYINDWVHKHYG
# [3] = Mean ± SEM, tested three times, read-out: IC50
Binding Mode (Tyrosinase [1]),Inhibitory activity on tyrosinase (in words) (Tyrosinase [2]),Inhibitory Ratio at 50 μM (Tyrosinase [2]; tested three times) [%],IC50 (Tyrosinase [2]; [3]) [µM],Structure (SMILES),IC50 (Tyrosinase [2]) [µM]
Competitive inhibitor,most potent inhibitors,69.2 ± 1.0,10.3 ± 1,"COc1cc(-c2[o+]c3cc(O)cc(O)c3cc2O[C@@H]2O[C@H](CO)[C@@H](O)[C@H](O)[C@H]2O)cc(O)c1O [Compound 2, petunidin 3-O-glucoside]",–
Competitive inhibitor,moderate inhibitory activity,55.2 ± 0.9,41.3 ± 3.2,"OC[C@H]1O[C@@H](Oc2cc3c(O)cc(O)cc3[o+]c2-c2cc(O)c(O)c(O)c2)[C@H](O)[C@@H](O)[C@H]1O [Compound 3, delphinidin 3-O-galactoside]",–
–,–,−1.9 ± 40.0,–,"OC[C@H]1O[C@@H](Oc2cc3c(O)cc(O)cc3[o+]c2-c2ccc(O)c(O)c2)[C@H](O)[C@@H](O)[C@@H]1O [Compound 4, kuromanin (cyanidin 3-O-glucoside)]",–
–,–,47.5 ± 3.2,–,"OC[C@H]1O[C@@H](Oc2cc3c(O)cc(O)cc3[o+]c2-c2cc(O)c(O)c(O)c2)[C@H](O)[C@@H](O)[C@@H]1O [Compound 5, delphinidin 3-O-glucoside]",–
–,–,6.5 ± 2.1,–,"OC[C@H]1O[C@@H](Oc2cc3c(O)cc(O)cc3[o+]c2-c2ccc(O)cc2)[C@H](O)[C@@H](O)[C@@H]1O [Compound 6, callistephin (pelargonidin 3-O-glucoside)]",–

Structure (SMILES),Binding Mode (Tyrosinase [1]),Inhibitory activity on tyrosinase (in words) (Tyrosinase [2]),Inhibitory Ratio at 50 μM (Tyrosinase [2]; tested three times) [%],IC50 (Tyrosinase [2]; [3]) [µM],IC50 (Tyrosinase [2]) [µM]
"Oc1cc(O)c2ccc(-c3ccc(O)c(O)c3)[o+]c2c1 [Compound 1, luteolinidin]",Competitive inhibitor,most potent inhibitors,–,–,3.7 ± 0.8
